System: THP-1 cells
Test: IL-12 p40 release from THP-1 cells, measured by ELISA of 20 h supernatants
Assay type: cell-based, human
Details: for IL-12 p40 release: Example 7, FIG. 10, THP-1 20 h

## 38 kDa lipoprotein: M. tuberculosis 38 kDa lipoprotein antigen; migrates as 39 kDa band
Example 4, FIG. 7, solubilized gel regions of Rotofor fraction #4, average of four experiments
  IL-12 p40 release (monocyte Western blot): some contribution

## recombinant 19 kDa expressed in E. coli: recombinant form of the M. tuberculosis 19 kDa antigen expressed in E. coli
  IL-12 p40 release: failed to induce any IL-12 p40

## recombinant 19 kDa expressed in M. vaccae: recombinant form of the M. tuberculosis 19 kDa antigen expressed in a mycobacterial system, M. vaccae
  IL-12 p40 release: stimulated IL-12 p40 release in an equivalent manner

Reference: patent publication US6517839B1, “Methods for inducing interleukin-12 and a type1/Th1 T-cell response” (priority 1997, dated 2003)
